A word on the LC50: it is the concentration lethal to half of the exposed cells or organisms. The term LD50 denotes the dose expected to kill half of the subjects tested. As usually defined, the logP is the decadic logarithm of the partition coefficient of the neutral form, usually between octanol and water.

Data set [1] in a line: Toxicity in Cyprinidae (carp fish). It counts as ADME, organism-based. Conditions: in vivo.
Data set [2] in a line: Acute toxicity in Rattus norvegicus (rat) compound administered through inhalation. Format: organism-based. As to conditions: in vivo, inhaled or intranasal.
The nature of data set [3]: Acute toxicity in Rattus norvegicus (rat) compound administered intradermally. It counts as organism-based. Conditions: in vivo.
The nature of data set [4]: Acute toxicity in po dosed Rattus norvegicus (rat). Format: organism-based. As to conditions: in vivo.
The nature of data set [5]: Solubility of the compound in water. It counts as physicochemical. Conditions: buffer.
Data set [6] in a line: Octanol-water partition co-efficient, log P of the compound at 20 degC. It counts as physicochemical.

On to `FC(F)(F)c1ccc(OCCCOc2c(Cl)cc(OCC=C(Cl)Cl)cc2Cl)nc1` [PYRIDALYL], for which the LC50 in data set [1] was above 10 µg/mL; in data set [2] it was above 2.01 µg/mL. Besides, the LD50 in data set [3] was above 2000 mg/kg; in data set [4] it was above 5000 mg/kg. Besides, in data set [5], the solubility is 0.15 ppb. Besides, the logP in data set [6] was found to be 8.1.

These data come from ChEMBL document CHEMBL3045907, “Discovery and development of pyridalyl” (J Pestic Sci, 2012).
